The text below walks through data of patent publication US8188117B2, “Piperidinyl-substituted isoquinolone derivatives” (Sanofi-Aventis, priority 2005, dated 2012).

T1 sequence (O75116 whole entry): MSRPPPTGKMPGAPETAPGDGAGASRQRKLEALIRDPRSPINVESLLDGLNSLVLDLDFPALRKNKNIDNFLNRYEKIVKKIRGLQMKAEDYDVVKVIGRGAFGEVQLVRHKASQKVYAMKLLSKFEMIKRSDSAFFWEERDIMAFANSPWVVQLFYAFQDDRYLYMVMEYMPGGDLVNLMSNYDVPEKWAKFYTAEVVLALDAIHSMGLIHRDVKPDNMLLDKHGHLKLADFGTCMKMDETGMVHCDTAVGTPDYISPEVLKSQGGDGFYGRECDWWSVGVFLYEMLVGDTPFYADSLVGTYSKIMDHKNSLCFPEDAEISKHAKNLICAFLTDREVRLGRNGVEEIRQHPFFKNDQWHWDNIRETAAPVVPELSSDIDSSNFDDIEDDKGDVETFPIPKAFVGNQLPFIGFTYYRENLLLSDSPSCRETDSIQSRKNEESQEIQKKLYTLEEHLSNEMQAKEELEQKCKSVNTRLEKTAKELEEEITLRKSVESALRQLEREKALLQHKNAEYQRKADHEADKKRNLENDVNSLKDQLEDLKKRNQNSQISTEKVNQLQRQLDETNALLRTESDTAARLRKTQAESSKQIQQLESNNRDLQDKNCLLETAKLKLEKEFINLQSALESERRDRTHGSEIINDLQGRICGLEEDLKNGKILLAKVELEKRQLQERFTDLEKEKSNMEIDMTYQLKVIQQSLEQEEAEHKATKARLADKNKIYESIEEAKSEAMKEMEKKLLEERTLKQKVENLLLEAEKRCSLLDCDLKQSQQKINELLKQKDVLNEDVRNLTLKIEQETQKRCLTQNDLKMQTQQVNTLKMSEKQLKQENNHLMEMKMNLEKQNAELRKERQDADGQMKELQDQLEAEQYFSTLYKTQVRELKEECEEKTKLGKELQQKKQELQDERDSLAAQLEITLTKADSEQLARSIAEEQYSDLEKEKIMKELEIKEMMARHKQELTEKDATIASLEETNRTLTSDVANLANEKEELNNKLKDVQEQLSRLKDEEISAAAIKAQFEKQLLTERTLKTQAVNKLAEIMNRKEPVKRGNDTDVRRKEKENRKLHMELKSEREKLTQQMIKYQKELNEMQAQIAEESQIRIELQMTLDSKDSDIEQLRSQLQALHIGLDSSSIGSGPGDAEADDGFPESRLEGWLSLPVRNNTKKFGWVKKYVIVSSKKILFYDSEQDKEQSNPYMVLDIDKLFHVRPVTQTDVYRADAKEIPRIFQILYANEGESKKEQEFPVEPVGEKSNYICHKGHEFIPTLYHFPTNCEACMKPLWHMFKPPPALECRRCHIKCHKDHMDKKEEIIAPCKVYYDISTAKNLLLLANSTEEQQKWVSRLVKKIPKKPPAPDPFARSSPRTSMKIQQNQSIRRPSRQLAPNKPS

This assay addresses T1, ROCKII or ROKα (Homo sapiens, UniProt O75116).
T1 construct: purchased Upstate 14-451
Briefly: Determination of Rho kinase inhibition (γ33P ATP, Streptavidin Flash Plate). The note with it: ATP 40 μM, enzyme 0.1 ng/μl, 20 min at room temperature, tested as salt or free base obtained in the examples. The assay is classed as biochemical. The procedure: Determination of Rho Kinase Inhibition
To measure Rho-kinase inhibition, IC50 values were determined according to the following protocol:
Buffer: 25 mM Tris pH7.5; 0.02% BSA; 5% Glycerol; 0.008% Triton X100; 2% DMSO, 1 mM DTT; 1 mM MgCl2; 0.5 μCi/well γ^33P ATP
Enzyme: ROCKII or ROKα) (Upstate, Catalog #14-451 Lot #24880U) 0.1 ng/μl Final concentration of ATP in reaction mixture 40 μM
Biotinylated substrate, diluted to 0.25 μM with buffer described above (without ATP)
• 1. 10 μl Tris buffer (±Inhibitor) • 2. Add 30 μL of enzyme solution • 3. Start the reaction with 30 μL of mix substrate/ATP/ATP33 • 4. Incubate for 20 min at room temperature • 5. Stop reaction with 30 μL of 50 mM EDTA • 6. Transfer 50 μL of stopped solution to Streptavidin Flash Plate plus, Perkin Elmer, SMP 103A • 7. Incubate for 30 min at RT • 8. Wash 4 times with 300 μl of PBS/0.1% Tween 20 • 9. Radioactivity in the well was determined
With `O=c1[nH]ccc2cc(OC3CCNCC3)ccc12` [Example 12, 6-(Piperidin-4-yloxy)-2H-isoquinolin-1-one], the pIC50 entry is on record as “+++++ (6.0 ≦ pIC50)”.

Consider `O=c1[nH]ccc2cc(OC3CCNCC3)c(Br)cc12` [Example 17, 7-Bromo-6-(piperidin-4-yloxy)-2H-isoquinolin-1-one], for which the pIC50 result is on record as “+++++ (6.0 ≦ pIC50)”.

Turning to `Cc1c[nH]c(=O)c2ccc(OC3CCNCC3)cc12` [Example 21], the pIC50 result is “+++++ (6.0 ≦ pIC50)”.

With `O=c1[nH]ccc2cc(OC3CCNCC3)c(F)cc12` [Example 23], the pIC50 entry is “+++++ (6.0 ≦ pIC50)”.

Regarding `COc1cc2c(=O)[nH]ccc2cc1OC1CCNCC1` [Example 25], the pIC50 entry is listed as “++++ (5.0 ≦ pIC50 < 6.0)”.

With `Cc1cc2c(=O)[nH]cc(C)c2cc1OC1CCNCC1` [Example 28], the pIC50 entry is recorded as “+++++ (6.0 ≦ pIC50)”.

Take `CCc1c[nH]c(=O)c2ccc(OC3CCNCC3)cc12` [Example 31]: the pIC50 result is listed as “+++++ (6.0 ≦ pIC50)”.

Turning to `CCc1c[nH]c(=O)c2cc(F)c(OC3CCNCC3)cc12` [Example 32], the pIC50 entry is “++++ (5.0 ≦ pIC50 < 6.0)”.

Turning to `CN1CCC(Oc2ccc3c(=O)[nH]ccc3c2)CC1` [Example 40], the pIC50 result was “+++++ (6.0 ≦ pIC50)”.

In the case of `O=c1[nH]ccc2cc(OC[C@H]3CCCNC3)ccc12` [Example 49], the pIC50 entry is “++++ (5.0 ≦ pIC50 < 6.0)”.

On to `O=c1[nH]cc(Br)c2cc(OC3CCNCC3)ccc12` [Example 52, 4-Bromo-6-(piperidin-4-yloxy)-2H-isoquinolin-1-one], for which the pIC50 entry is “+++++ (6.0 ≦ pIC50)”.

For `Oc1nccc2cc(OC3CCNCC3)c(Cl)cc12` [Example 54, 7-Chloro-6-(piperidin-4-yloxy)-2H-isoquinolin-1-one], the pIC50 entry was “+++++ (6.0 ≦ pIC50)”.

Take `CC(C)N1CCC(Oc2cc3ccnc(O)c3cc2Cl)CC1` [Example 55, 7-Chloro-6-(1-isopropyl-piperidin-4-yloxy)-2H-isoquinolin-1-one]: the pIC50 result is “+++++ (6.0 ≦ pIC50)”.

For `O=c1[nH]ccc2cc(OC3CCN(CC4CC4)CC3)ccc12` [Example 58], the pIC50 entry is on record as “+++++ (6.0 ≦ pIC50)”.

Turning to `CCCN1CCC(Oc2cc3cc[nH]c(=O)c3cc2F)CC1` [Example 101], the pIC50 result is “+++++ (6.0 ≦ pIC50)”.

Regarding `Cc1cc2c(=O)[nH]ccc2cc1OC1CCN(CC2CCOC2)CC1` (centres unmarked) [Example 265], the pIC50 entry is reported as “+++++ (6.0 ≦ pIC50)”.

As to `Cc1cc2c(=O)[nH]ccc2cc1OC1CCN(Cc2ccsc2)CC1` [Example 266], the pIC50 entry is on record as “+++++ (6.0 ≦ pIC50)”.

For `Cc1cc2c(=O)[nH]ccc2cc1OC1CCN(Cc2ccc(S(C)(=O)=O)cc2)CC1` [Example 275], the pIC50 result is listed as “+++++ (6.0 ≦ pIC50)”.

Turning to `Cc1cc2c(=O)[nH]ccc2cc1OC1CCN(Cc2ccccn2)CC1` [Example 276], the pIC50 entry is given as “+++++ (6.0 ≦ pIC50)”.

Take `O=c1[nH]ccc2c(Cl)c(OC3CCNCC3)ccc12` [Example 309, 5-Chloro-6-(piperidin-4-yloxy)-2H-isoquinolin-1-one]: the pIC50 result is on record as “+++++ (6.0 ≦ pIC50)”.
